Results on 1 compound are retold here after patent US20200190470A1, “TEMOZOLOMIDE RESISTANT CELLS AND AN INTEGRATED METHOD FOR CHARACTERIZING THE SAME” (Council of Scientific & Industrial Research, priority 2018, published 2020).

In experiment [1] the test system is differentiated cells (NDx) of NSP. The experiment can be described thus: TMZ dose response of differentiated NSP cells (NDx). As to conditions: Homo sapiens.
Method: For dose-response experiments, four replicates at ˜20,000 cells per well were plated in 96-well Nunc™ tissue culture plates in full growth medium for 24 h, treated with different doses of TMZ in serial dilutions (0.05Me5M) followed by cell viability tests using the MTT assay. Appropriate cell controls (without TMZ treatment) were used to calculate IC50.
Experiment [2] concerns U87MG cells. The experiment is described as follows: TMZ dose response, MTT cell viability assay, U87MG. Further details: AUC (area under dose response curve): unit not given beside the values. (In general: Tetrazolium assays rely on reduction of a dye to a coloured formazan, in cell work by metabolically active cells.)
For experiment [3], the system named is NSP cells (neurospheres derived from U87MG). The experiment is described as follows: TMZ dose response, MTT cell viability assay, neurospheres (NSP). Also noted: AUC (area under dose response curve): unit not given beside the values.

For the compound `Cn1nnc2c(C(N)=O)ncn2c1=O` [Temozolomide], the IC50 in experiment [1] was 818 µM; in experiment [2] (Homo sapiens, U-87 MG) it was 746 µM; in experiment [3] (Homo sapiens, U-87 MG), 1040 µM. Further, the “AUC (area under dose response curve)” value in experiment [2] (U87MG) is listed as 53039; in experiment [3] (Neurospheres (NSP)) it was 276836. The values for the Emax in experiment [2] (U87MG) and in experiment [3] (Neurospheres (NSP)) were 25.53 and 49.29, respectively. In addition, the “Log2 (Hill Slope)” value in experiment [2] (U87MG) is on record as −1.959; in experiment [3] (Neurospheres (NSP)), 0. Also, in experiment [3] (NSP relative to U87MG), the fold resistance ratio worked out at 1.41.

The term IC50 denotes the concentration that gives 50% inhibition.
